Results as given in PMC10141604, “Small-Molecule Inhibition of Androgen Receptor Dimerization as a Strategy against Prostate Cancer” (ACS Central Science, 2023).

Tests used:
Format in all cases: cell-based
[1] = molecular target: T1, GR (Homo sapiens, UniProt P04150); assay: Luciferase reporter assay for GR (HeLa cells); settings: 10 μM, 1 nM dexamethasone
T1 construct: host or cells: HeLa
T1 sequence (P04150 1-777): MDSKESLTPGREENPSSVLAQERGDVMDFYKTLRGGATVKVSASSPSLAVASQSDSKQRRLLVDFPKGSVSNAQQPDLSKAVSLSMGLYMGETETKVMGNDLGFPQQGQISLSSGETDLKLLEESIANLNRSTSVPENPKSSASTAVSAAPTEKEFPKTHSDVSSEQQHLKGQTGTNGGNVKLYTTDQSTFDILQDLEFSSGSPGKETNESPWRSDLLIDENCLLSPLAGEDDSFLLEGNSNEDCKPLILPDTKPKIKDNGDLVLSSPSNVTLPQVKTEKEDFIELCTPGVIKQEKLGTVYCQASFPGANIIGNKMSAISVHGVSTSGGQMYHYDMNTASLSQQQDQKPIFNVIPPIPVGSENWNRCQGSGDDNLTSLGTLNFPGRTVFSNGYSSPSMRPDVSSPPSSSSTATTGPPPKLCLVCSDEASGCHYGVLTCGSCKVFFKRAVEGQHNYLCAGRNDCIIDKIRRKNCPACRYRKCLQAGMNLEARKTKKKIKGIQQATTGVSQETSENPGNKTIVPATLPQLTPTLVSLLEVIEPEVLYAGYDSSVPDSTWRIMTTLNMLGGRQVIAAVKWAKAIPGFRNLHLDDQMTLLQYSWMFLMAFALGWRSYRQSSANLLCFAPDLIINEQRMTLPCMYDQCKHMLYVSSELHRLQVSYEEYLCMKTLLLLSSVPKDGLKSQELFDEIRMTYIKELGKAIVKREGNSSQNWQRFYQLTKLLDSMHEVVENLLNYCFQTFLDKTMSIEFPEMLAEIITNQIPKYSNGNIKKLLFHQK
Procedure: (§1) calculating volume (V= 0.5 × L × W2). Finally, the mice were sacrificed and the tumors were harvested for hematoxylin and eosin (H&E) staining.
(§2) Luciferase Reporter Assays for PR, GR, and MR
Addgene), 24 ng pGL4.36[luc2P MMTV Hygro] (Promega) and 5 ng Renilla using HG- […]
Addgene), 24 ng pGL4.36[luc2P MMTV Hygro] (Promega) and 5 ng Renilla using lip3000 transfection reagent (#L3000075, Thermofisher) for 24 h. For MR induction, HEK293T (1 × 10^4 cells/well) were transfected with 71 ng pCMV-MR gifted by Liu et al. 28, 24 ng of pGL4.36[luc2P MMTV Hygro] (Promega) and 5 ng Renilla using lip3000 transfec tion reagent for 24 h. For the antagonistic models, 10 nM /well progesterone for PC3 cells , 1 nM/well dexamethasone for HeLa, and 5 nM/well aldosterone for HEK293T cells were added to stimulate the cells. Meanwhile, each cell line was treated […]
For the agonistic models, the cells were directly treated with the compounds without any hormones. […]
hormones progesterone, dexamethasone, and aldosterone were considered as agonists for PR, GR, and MR, respectively. The luciferase activities were assessed using the Dual-Glo Luciferase system (#E1910, Promega).
Cell Cycle and Apoptosis for LNCaP cells
LNCaP were cultured in 6-well plate with 5× 10^5 cells/well, after incubated at 37 °C for […]
(§3) Cell cycle were determined after 48 h incubation by Cell Cycle Staining Kit (#CCS012, MULTI SCIENCES) using […]

[2] = system: PSA, CDC20, CENPF, MKI67 mRNA in LNCaP cells; assay: Quantitative PCR in LNCaP cells; settings: for mRNA expression of PSA: LNCaP, 0.1, 1 μM, 5 nM DHT; for mRNA expressions of CDC20, CENPF and MKI67: LNCaP, compared with DHT
Procedure: Quantitative PCR (qPCR) for PSA, CDC20, CENPF, MKI67
LNCaP cells were cultured in medium containing 5% CSS in six -well plates and treated […]
where 5 nM DHT and DMSO were separately used in parallel as controls. After 48 h incubation, EZ-10 DNAaway RNA Mini -Preps Kit (Sangon Biotech) and Hifair® Ⅲ 1st Strand cDNA Synthesis SuperMix for qPCR (YEASEN) were employed for mRNA extraction and cDNA preparation, respectively. Then, the PCR SYBR Green Master Mix (YEASEN) was employed to amplify cDNA using the prime pairs in Table S5 . […]

[3] = system: LNCaP cell line; assay: Cell cycle and apoptosis of LNCaP cells (flow cytometry)
Procedure: as §1, §2
PC3, HeLa, and HEK293T cells were cultured using 5% CSS RPMI-1640, 5% CSS RPMI-1640 and 10% FBS DMEM media in 96-well plates for 24 h, respectively. For PR induction, PC3 (1 × 10^4 cells/well) were transfected with 50 ng pcDNA3-PRB (#89130, Addgene), 24 ng pGL4.36[luc2P MMTV Hygro] (Promega) and 5 ng Renilla using HG-TransGeneTM transfection reagent (#TG-10012, Genomeditech) for 4 h. […] The luciferase activities were assessed using the Dual-Glo Luciferase system (#E1910, Promega). […]
as §3
Cytomic FC 500MCL flow cytometer (Beckman Coulter, Inc). Cell apoptosis were determined after 24 h incubation by Annexin V-FITC/PI apoptosis kit (#AP101, MULTI SCIENCES) using BD FACS S ORP ARIA II flow cytometer (BD Biosciences).
Graphpad Prism (v.8.4) program was adopted for statistical analysis and data were presented as the mean ± standard error of mean (SEM). The value of p was determined on the basis of at least three independent assays using Student’s t-test, one-way ANOVA or two-way ANOVA analysis.

Row | Structure (SMILES) | GR antagonistic activity [1] | mRNA expression of PSA [2] | mRNA expressions of CDC20, CENPF and MKI67 [2] | impact on cell cycle and apoptosis [3]
1 | CC(=O)Cc1nsc(NC(=O)c2cc(-c3cccc(C(F)(F)F)c3)oc2C)n1 [Compound M17-B15] | largely ineffective | inhibited | significantly reduces | do not show an obvious impact
2 | CNC(=O)c1ccc(N2C(=S)N(c3ccc(C#N)c(C(F)(F)F)c3)C(=O)C2(C)C)cc1F [Enz, enzalutamide, reference compound] | largely ineffective | inhibited | significantly reduces | do not show an obvious impact
